From ChEMBL document CHEMBL3997822, “Asymmetric total synthesis of tetrahydroprotoberberine derivatives and evaluation of their binding affinities at dopamine receptors” (Bioorg Med Chem Lett, 2017) come the findings set out here.

pKi: −log10 of the molar value. Some results are limits rather than exact numbers.

Assay [1] concerns the target T1, D(2) dopamine receptor (Homo sapiens, UniProt P14416). The assay is described as follows: Displacement of [3H]N-methylspiperone from human dopamine D2 receptor after 1 hr. For orientation: In a radioligand displacement assay an active substance lowers the binding of a labelled ligand.
In assay [2] the target is T2, D(1A) dopamine receptor (Homo sapiens, UniProt P21728). The assay is described as follows: Displacement of [3H]SCH23390 from human dopamine D1 receptor after 1 hr.
The target in assay [3] is T3, D(3) dopamine receptor (Homo sapiens, UniProt P35462). The assay is described as follows: Displacement of [3H]N-methylspiperone from human dopamine D3 receptor after 1 hr.
Assay [4] has as its target T4, D(1B) dopamine receptor (Homo sapiens, UniProt P21918). The assay can be described thus: Displacement of [3H]SCH23390 from human dopamine D5 receptor after 1 hr.
Assay [5] addresses T5, D(4) dopamine receptor (Homo sapiens, UniProt P21917).
T5 sequence (P21917 whole entry): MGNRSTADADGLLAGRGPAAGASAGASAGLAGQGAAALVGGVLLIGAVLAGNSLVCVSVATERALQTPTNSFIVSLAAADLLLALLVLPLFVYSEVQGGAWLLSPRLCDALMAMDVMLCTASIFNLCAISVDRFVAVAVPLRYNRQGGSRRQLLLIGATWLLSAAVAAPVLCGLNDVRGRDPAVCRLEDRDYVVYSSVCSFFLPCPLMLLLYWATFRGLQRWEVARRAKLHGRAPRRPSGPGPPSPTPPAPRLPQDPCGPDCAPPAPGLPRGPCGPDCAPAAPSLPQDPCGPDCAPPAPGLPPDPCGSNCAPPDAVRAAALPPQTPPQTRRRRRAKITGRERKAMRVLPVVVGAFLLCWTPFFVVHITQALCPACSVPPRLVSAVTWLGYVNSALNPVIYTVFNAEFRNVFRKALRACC
The assay can be described thus: Displacement of [3H]N-methylspiperone from human dopamine D4 receptor after 1 hr.

Assay [6] concerns the target T3, D(3) dopamine receptor. The assay can be described thus: biochemical.
The target in assay [7] is T5, D(4) dopamine receptor. The assay can be described thus: Displacement of [3H]SCH23390 from human dopamine D4 receptor expressed in HEK293 cells after 1 hr. The format is cell-based.
Assay [8] concerns the target T2, D(1A) dopamine receptor. The assay can be described thus: Displacement of [3H]SCH23390 from human 3HA-tagged dopamine D1 receptor expressed in HEK293 cells after 1 hr. In kind it is cell-based.
Assay [9] has as its target T1, D(2) dopamine receptor. The assay can be described thus: Displacement of [3H]SCH23390 from human FLAG-tagged dopamine D2 receptor expressed in HEK293 cells after 1 hr. In kind it is cell-based.
Assay [10] addresses T4, D(1B) dopamine receptor. Particulars: hek293.

T1 sequence (P14416 whole entry): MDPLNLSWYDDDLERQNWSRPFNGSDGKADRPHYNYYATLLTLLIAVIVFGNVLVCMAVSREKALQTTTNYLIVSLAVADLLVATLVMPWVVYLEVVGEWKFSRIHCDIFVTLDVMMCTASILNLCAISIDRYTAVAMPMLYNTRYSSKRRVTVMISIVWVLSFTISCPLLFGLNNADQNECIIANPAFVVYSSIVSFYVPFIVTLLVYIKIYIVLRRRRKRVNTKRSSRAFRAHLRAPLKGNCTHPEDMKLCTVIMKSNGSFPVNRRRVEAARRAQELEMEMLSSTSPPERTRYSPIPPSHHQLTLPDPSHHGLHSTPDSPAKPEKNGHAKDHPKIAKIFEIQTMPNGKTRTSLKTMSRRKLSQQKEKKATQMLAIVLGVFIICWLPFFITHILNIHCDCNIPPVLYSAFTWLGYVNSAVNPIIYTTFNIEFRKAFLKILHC
T4 sequence (P21918 whole entry): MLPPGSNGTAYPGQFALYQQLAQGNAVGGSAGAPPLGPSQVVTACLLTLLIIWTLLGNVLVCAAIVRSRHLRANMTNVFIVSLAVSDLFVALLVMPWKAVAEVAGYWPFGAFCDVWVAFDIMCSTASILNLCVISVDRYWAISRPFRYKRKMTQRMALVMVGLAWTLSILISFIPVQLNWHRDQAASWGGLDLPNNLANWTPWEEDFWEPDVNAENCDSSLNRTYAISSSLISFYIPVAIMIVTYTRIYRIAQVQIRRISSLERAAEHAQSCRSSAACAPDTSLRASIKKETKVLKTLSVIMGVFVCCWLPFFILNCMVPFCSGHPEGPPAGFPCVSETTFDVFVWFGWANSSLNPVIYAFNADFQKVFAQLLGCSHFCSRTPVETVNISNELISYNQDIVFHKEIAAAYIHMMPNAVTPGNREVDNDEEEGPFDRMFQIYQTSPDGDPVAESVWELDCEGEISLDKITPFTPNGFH
T2 sequence (P21728 whole entry): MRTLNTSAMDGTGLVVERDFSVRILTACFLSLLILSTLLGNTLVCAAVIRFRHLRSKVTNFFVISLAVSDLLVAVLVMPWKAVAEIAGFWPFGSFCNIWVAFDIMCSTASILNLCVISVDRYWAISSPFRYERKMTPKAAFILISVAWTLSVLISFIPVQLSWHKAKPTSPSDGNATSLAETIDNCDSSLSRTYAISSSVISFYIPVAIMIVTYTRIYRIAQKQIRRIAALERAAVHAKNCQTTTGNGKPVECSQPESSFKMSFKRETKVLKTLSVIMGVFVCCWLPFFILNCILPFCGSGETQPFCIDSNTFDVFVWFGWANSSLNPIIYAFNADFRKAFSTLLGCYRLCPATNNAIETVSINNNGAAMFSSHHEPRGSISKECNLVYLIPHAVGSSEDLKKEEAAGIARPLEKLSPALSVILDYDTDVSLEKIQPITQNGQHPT
T3 sequence (P35462 whole entry): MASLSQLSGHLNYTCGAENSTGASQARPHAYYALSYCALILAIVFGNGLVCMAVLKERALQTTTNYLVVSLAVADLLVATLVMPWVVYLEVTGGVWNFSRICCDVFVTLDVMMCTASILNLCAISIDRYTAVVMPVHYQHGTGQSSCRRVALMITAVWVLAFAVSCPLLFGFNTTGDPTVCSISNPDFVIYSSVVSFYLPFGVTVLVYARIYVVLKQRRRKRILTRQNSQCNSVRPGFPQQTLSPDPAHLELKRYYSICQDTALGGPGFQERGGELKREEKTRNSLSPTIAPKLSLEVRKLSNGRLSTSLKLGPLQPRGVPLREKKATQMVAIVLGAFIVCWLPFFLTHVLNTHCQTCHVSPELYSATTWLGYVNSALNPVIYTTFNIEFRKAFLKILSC

For the compound `COc1c(O)ccc2c1CN1CCc3cc4c(cc3[C@@H]1C2)OCO4`, the pKi (as a rule, the Ki on a negative log10 scale, so that one unit is a factor of ten) was 7.31 at D(2) dopamine receptor [1]; 8.19 at D(1A) dopamine receptor [2]; 7.08 at D(3) dopamine receptor [3]; 7.82 at D(1B) dopamine receptor [4]; 5.70 at D(4) dopamine receptor [5].

On to `COc1cc2c(cc1O)CCN1Cc3c(ccc(OC)c3OC)C[C@@H]21`, for which the pKi at D(2) dopamine receptor [1] was 7.37; on D(1A) dopamine receptor [2], 6.70; on D(3) dopamine receptor [3], 6.58; on D(1B) dopamine receptor [4] it was 6.50; on D(4) dopamine receptor [5], below 6.00.

On to `COc1cc2c(cc1O)[C@@H]1Cc3ccc(OC)c(OC)c3CN1CC2`, for which the pKi on D(3) dopamine receptor [6] was 7.43; at D(4) dopamine receptor [7], 7.11; at D(1A) dopamine receptor [8], […].

On to `COc1cc2c(cc1OC)[C@@H]1Cc3ccc(O)c(OC)c3CN1CC2`, for which the pKi at D(2) dopamine receptor [1] was 6.27; on D(1A) dopamine receptor [2], 6.97; at D(3) dopamine receptor [3], 5.77; on D(1B) dopamine receptor [4], 6.62; on D(4) dopamine receptor [5], below 6.00.

For `COc1ccc2c(c1OC)CN1CCc3cc4c(cc3[C@@H]1C2)OCO4` [CANADINE], the pKi at D(2) dopamine receptor [1] is 7.10; at D(1A) dopamine receptor [2], 7.31; at D(3) dopamine receptor [3], 6.36; at D(1B) dopamine receptor [4] it was 7.21; on D(4) dopamine receptor [5], 6.31.

Take `COc1cc2c(cc1OC)[C@@H]1Cc3ccc(OC)c(OC)c3CN1CC2` [TETRAHYDROPALMATINE]: the negative logarithm of the Ki (pKi) at D(2) dopamine receptor [9] was 5.95; on D(1B) dopamine receptor [10], 6.52; at D(4) dopamine receptor [7], below 6.00; at D(1A) dopamine receptor [8] (hek293), 6.82.
